Laboratory results: patent US20230129258A1, “HETEROTANDEM BICYCLIC PEPTIDE COMPLEXES” (BicycleTx Limited, priority 2019, published 2023)
Where two headings read alike, the source gives them in different places.

Tests used:
cyno Nectin-4 = test: SPR direct binding to biotinylated Nectin-4 extracellular domain, cyno
Text: (§1) The binding of BCY11863 to its primary target Nectin-4 and CD137 was characterized using surface plasmon resonance (SPR).

rat Nectin-4 [1] = target: T1, rat Nectin-4 (Rattus norvegicus, UniProt D3ZET1); test: SPR direct binding to biotinylated Nectin-4 extracellular domain, rat
T1 sequence (D3ZET1 31-509): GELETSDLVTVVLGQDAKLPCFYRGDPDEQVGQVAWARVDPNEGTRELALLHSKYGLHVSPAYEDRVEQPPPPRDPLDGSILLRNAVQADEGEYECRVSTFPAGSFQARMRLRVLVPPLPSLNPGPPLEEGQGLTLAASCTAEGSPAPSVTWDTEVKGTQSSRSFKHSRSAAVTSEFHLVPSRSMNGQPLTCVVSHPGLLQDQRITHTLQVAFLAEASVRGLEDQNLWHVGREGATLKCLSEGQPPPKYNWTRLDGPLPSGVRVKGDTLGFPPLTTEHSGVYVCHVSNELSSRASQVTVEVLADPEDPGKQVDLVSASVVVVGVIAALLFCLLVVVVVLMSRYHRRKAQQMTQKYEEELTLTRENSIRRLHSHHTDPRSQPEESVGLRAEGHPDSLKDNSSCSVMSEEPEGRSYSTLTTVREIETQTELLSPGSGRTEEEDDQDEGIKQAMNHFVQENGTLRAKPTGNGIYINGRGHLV
Text: as §1

rat Nectin-4 [2] = target: T2, rat Nectin-4 (Rattus norvegicus, UniProt D3ZET1); test: Multicomponent SPR: Nectin-4 binding to complex captured on biotinylated human CD137, rat Nectin-4
T2 construct: extracellular domain using biotinylated human
Text: To understand whether the binding of BCY11863 to Nectin-4 was altered in the context of the ternary complex, i.e. when also bound to CD137, a multicomponent SPR binding assay was developed. BCY11863 was first captured to human CD137 immobilized on the SPR chip surface and then Nectin-4 from different species were passed over the chip to determine their affinities to the captured BCY11863 (see FIG. 21C). The affinities to Nectin-4 were generally maintained in the presence of CD137 binding as shown below: […]
T2 sequence (Q07011 24-186 partner, one chain of several): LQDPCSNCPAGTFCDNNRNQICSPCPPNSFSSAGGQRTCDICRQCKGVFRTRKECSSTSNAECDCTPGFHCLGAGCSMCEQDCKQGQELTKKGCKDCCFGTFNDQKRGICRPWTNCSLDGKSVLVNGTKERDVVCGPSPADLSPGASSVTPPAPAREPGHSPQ

human PBMCs = test: Human PBMC-tumor cell co-culture (cytokine stimulation) assay with Nectin-4-expressing tumor cells; assay type: cell-based
Procedure: Tumor cell lines were cultured according to suppliers recommended protocol. Frozen PBMCs from healthy human donors were thawed and washed one time in room temperature PBS, and then resuspended in R10 medium. 100 μl of PBMCs (1,000,000 PBMCs/ml) and 100 μl of tumor cells (100,000 tumor cells/ml) (Effector:Target cell ratio (E:T) 10:1) were plated in each well of a 96 well flat bottom plate for the co-culture assay. 100 ng/ml of soluble anti-CD3 mAb (clone OKT3) was added to the culture on day 0 to stimulate human PBMCs. Test, control compounds, or vehicle controls were diluted in R10 media and 50 μL was added to respective wells to bring the final volume per well to 250 μL. Plates were covered with a breathable film and incubated in a humidified chamber at 37° C. with 5% CO2 for […]. Supernatants were collected 48 hours after stimulation, and human IL-2 and IFN-γ were detected by Luminex. Briefly, the standards and samples were added to black 96 well plate. Microparticle cocktail (provided in Luminex kit, R&D Systems) was added and shaken for 2 hours at room temperature. The plate was washed 3 times using magnetic holder. Biotin cocktail was then added to the plate and shaken for 1 hour at RT. The plate was washed 3 times using magnetic holder. Streptavidin cocktail was added to the plate and shaken for 30 minutes at RT. The plates were washed 3 times using magnetic holder, resuspended in 100 μL of wash buffer, shaken for 2 minutes at RT, and read using the Luminex 2000. Raw data were analyzed using built-in Luminex software to generate standard curves and interpolate protein concentrations, all other data analyses and graphing were performed using Excel and Prism software. […]

In the case of `CCCC[C@@H]1NC(=O)[C@H](Cc2ccc(O)cc2)NC(=O)[C@@H]2CCCN2C(=O)[C@H](CC(=O)O)NC(=O)[C@H](C)NC(=O)[C@H](Cc2ccccc2)NC(=O)[C@@H]2CSCCC(=O)N3CN(CN(C3)C(=O)CCSC[C@@H](C(=O)N[C@@H](C)C(N)=O)NC1=O)C(=O)CCSC[C@H](NC(C)=O)C(=O)N[C@@H](CC(C)(C)C)C(=O)N1CCC[C@H]1C(=O)N[C@@H](CCC(=O)O)C(=O)N[C@H](CCCCNC(=O)CCc1cn(CCOCCOCCOCCN(CCOCCOCCOCCC(=O)N[C@H]3CSCCC(=O)N4CN5CN(C4)C(=O)CCSC[C@H](NC(=O)[C@@H](CC(=O)O)NC(=O)[C@H](Cc4cccc6ccccc46)NC(=O)[C@@H]4CCCN4C3=O)C(=O)N[C@@H](CCSC)C(=O)N[C@@H](CCCCNC(=N)N)C(=O)N[C@@H](CC(=O)O)C(=O)N[C@@H](Cc3c[nH]c4ccccc34)C(=O)N[C@@H](CO)C(=O)N[C@@H]([C@@H](C)O)C(=O)N3CCC[C@H]3C(=O)N3C[C@H](O)C[C@H]3C(=O)N[C@@H](Cc3c[nH]c4ccccc34)C(=O)N[C@H](C(N)=O)CSCCC5=O)CCOCCOCCOCCn3cc(CCC(=O)NCCCC[C@H]4NC(=O)[C@H](CCC(=O)O)NC(=O)[C@@H]5CCCN5C(=O)[C@H](CC(C)(C)C)NC(=O)[C@@H](NC(C)=O)CSCCC(=O)N5CN6CN(C5)C(=O)CCSC[C@H](NC(=O)[C@H](Cc5ccc(O)cc5)NC(=O)[C@@H]5CCCN5C4=O)C(=O)N[C@@H](Cc4ccccc4)C(=O)N[C@@H](C)C(=O)N[C@@H](CC(=O)O)C(=O)N4CCC[C@H]4C(=O)N[C@@H](Cc4ccc(O)cc4)C(=O)N[C@@H](CCCC)C(=O)N[C@H](C(=O)N[C@@H](C)C(N)=O)CSCCC6=O)nn3)nn1)C(=O)N1CCC[C@H]1C(=O)N[C@@H](Cc1ccc(O)cc1)C(=O)N2` [BCY11863], the Kd (cyno Nectin-4; Direct Binding, biotinylated Nectin-4 extracellular domain, 25° C., read-out: SPR KD NHP (25° C.)) is reported as 27 ± 15 nM, the Kd (cyno Nectin-4; biotinylated ECD captured on streptavidin chip, read-out: KD) is reported as 5 to 27 nM and the Kd (rat Nectin-4 [1]; KD, biotinylated ECD captured on streptavidin chip) is reported as 5 to 27 nM. It also gave a Kd (rat Nectin-4 [1]; SPR KD Rat (25° C.), Direct Binding, biotinylated Nectin-4 extracellular domain, 25° C.) of 15 ± 1 nM, a Kd (rat Nectin-4 [2]) of 25 ± 2 nM and an EC50 (human PBMCs; 4T1-D02 (mouse), 4 donors, read-out: IFNy (nM), EC50 of cytokine secretion) of 0.04 ± 0.04 nM. For the same compound, the EC50 (human PBMCs; 4T1-D02 (mouse), 4 donors, read-out: IL-2 (nM), EC50 of cytokine secretion) was 0.16 ± 0.22 nM, the EC50 (human PBMCs; 4T1-Parental (Nectin4-), read-out: IFNy (nM), EC50 of cytokine secretion) was over 100 nM and the EC50 (human PBMCs; 4T1-Parental (Nectin4-), read-out: IL-2 (nM), EC50 of cytokine secretion) was over 100 nM. The EC50 (human PBMCs; H322 (human), 3 donors, read-out: IFNy (nM), EC50 of cytokine secretion) was 0.85 ± 0.66 nM, the EC50 (human PBMCs; H322 (human), 3 donors, read-out: IL-2 (nM), EC50 of cytokine secretion) was 0.84 ± 0.15 nM and the EC50 (human PBMCs; HT1376 (human), 5 donors, read-out: IFNy (nM), EC50 of cytokine secretion) was 0.23 ± 0.15 nM. It also gave an EC50 (human PBMCs; HT1376 (human), 5 donors, read-out: IL-2 (nM), EC50 of cytokine secretion) of 0.39 ± 0.29 nM, an EC50 (human PBMCs; MC38 #13 (mouse), 4 donors, read-out: IFNy (nM), EC50 of cytokine secretion) of 0.17 ± 0.11 nM and an EC50 (human PBMCs; MC38 #13 (mouse), 4 donors, read-out: IL-2 (nM), EC50 of cytokine secretion) of 0.25 ± 0.08 nM. For the same compound, the “IL-2 and IFN-γ cytokine secretion” value (human PBMCs; PBMC-4T1 (Nectin-4 engineered) co-culture, FIGS. 2A, 2B) was “induces robust IL-2 and IFN-γ cytokine secretion”, the EC50 (human PBMCs; T-47D (human), 3 donors, read-out: IFNy (nM), EC50 of cytokine secretion) was 0.08 ± 0.06 nM and the EC50 (human PBMCs; T-47D (human), 3 donors, read-out: IL-2 (nM), EC50 of cytokine secretion) was 0.2 ± 0.07 nM.
